Source: patent US4293489A, “Derivatives of A-30912A nucleus” (Eli Lilly and Company, priority 1980, dated 1981)
Read-outs that look alike come from different tables or passages of the source. Starred links: 1 amine or outer side, 2 acyl side, 3 side chain; linkers in the order of their positions; H or OH if unused. Positions of bridges follow the written chain, without caps; N, C: chain ends. Non-standard residues stand in square brackets, D forms with d. Residues, ends and D or L forms follow the SMILES beside them. *: point of attachment. Orn(4R-OH,5R-OH) = O=C([C@H](C[C@@H](O)[C@@H](O)N[*:3])N[*:1])[*:2]; hTyr(3S-OH,4S-OH) = N[C@H](C(=O)O)[C@H](O)[C@@H](O)c1ccc(O)cc1; Pro(3S-OH,4S-Me) = C[C@H]1CN[C@H](C(=O)O)[C@H]1O; X2 = CCCCCCCCCCCCCCS(=O)(=O)c1ccc(C(=O)*)cc1; Benzoyl(4-octyl) = CCCCCCCCc1ccc(C(=O)*)cc1; X5 = CCCCCCCCCCCCS(=O)(=O)c1ccc(C(=O)*)cc1; X3 = CCCCCCCCCCCCCCSc1ccc(C(=O)*)cc1; X10 = CCCCCCCCCCCCOc1cccc(C(=O)*)c1; X1 = CCCCCCCCCCCCSc1ccc(C(=O)*)cc1; Hyp = O=C(O)[C@@H]1C[C@@H](O)CN1; X9 = CCCCCCCCCCOc1cccc(C(=O)*)c1; X13 = CCCCCCCCOc1cccc(C(=O)*)c1; X14 = CCCCCCOc1ccc(C(=O)*)cc1

Columns and labels:
[1] = system: Candida albicans A-26; assay: Therapeutic activity against Candida albicans A-26 infection in X-irradiated mice, lowest active dose; assay type: in vivo; details: A26, light or radiation study, sc
Protocol: (§1) The results of in vivo tests to evaluate the effectiveness of the compounds of Examples 3 and 4 against an infection caused by Candida albicans A-26 in mice are given in Table 13, where activity is measured by the ED50 value (the dose in mg/kg. required to cure 50% of the test animals). In a separate test, the results of which are also summarized in Table 13, activity is indicated by the lowest dose at which a significant anti-fungal effect is observed. In this test, groups of male albino mice (specific pathogen free), weighing 18 to 20 grams, are infected intravenously with Candida albicans A-26. The animals are X-irradiated 24 hours prior to infection at about 50 roentgens per minute for 8 minutes (400 total dose) to reduce immune responses to the infecting organism. At 0, 4, and 24 hours post infection each group of mice is given graded doses subcutaneously of the test compound as a suspension in 33% polyethylene glycol (PEG)-water. The day of death for each animal is recorded.
(§2) *Dosage Schedules: A. = 40, 20, 15 and 10 mg/kg; Dosages given 0, 4, and
(§3) 24 hours post injection as suspension of test compound in 30% PEGH2
(§4) O. Number of mice receiving test compounds at each dosage level: 6 mice
(§5) per group. Number of mice in control (untreated) group: 10 mice per group

[2] = system: Candida albicans A-26; assay: Therapeutic activity against Candida albicans A-26 infection in mice, ED50; assay type: in vivo; details: Candida albicans, A26, sc, doses 0, 4 and 24 hours post infection, increase in survival time vs control, Reed-Muench, read-out: ED50
Protocol: as §1, §2, §3, §4, §5
**As measured by increase in survival time of treated animals versus
control, calculated by method of Reed v Mueuch, American J. Hygiene, 27,

[3] = X-irradiated mice, subcutaneous at 0, 4 and 24 hours post infection, survival, read-out: Lowest Active Dose

| SMILES | minimal effective dose [1, 3] [mg/kg] | ED50 [2] [mg/kg] | minimal effective dose ([1]; read-out: Lowest Active Dose, X-irradiated mice, subcutaneous at 0, 4 and 24 hours post infection, survival) [mg/kg] |
| --- | --- | --- | --- |
| CCCCCCCCCCCCSc1ccc(C(=O)N[C@H]2C[C@@H](O)[C@@H](O)NC(=O)[C@@H]3[C@@H](O)[C@@H](C)CN3C(=O)[C@H]([C@@H](C)O)NC(=O)[C@H]([C@H](O)[C@@H](O)c3ccc(O)cc3)NC(=O)[C@@H]3C[C@@H](O)CN3C(=O)[C@H]([C@@H](C)O)NC2=O)cc1 [drawing 157] (X1-[Orn(4R-OH,5R-OH)]T[Hyp][hTyr(3S-OH,4S-OH)]T[Pro(3S-OH,4S-Me)]; lactam 1-C) | < 1.25 | 2 |  |
| CCCCCCCCCCCCCCSc1ccc(C(=O)N[C@H]2C[C@@H](O)[C@@H](O)NC(=O)[C@@H]3[C@@H](O)[C@@H](C)CN3C(=O)[C@H]([C@@H](C)O)NC(=O)[C@H]([C@H](O)[C@@H](O)c3ccc(O)cc3)NC(=O)[C@@H]3C[C@@H](O)CN3C(=O)[C@H]([C@@H](C)O)NC2=O)cc1 [drawing 158] (X3-[Orn(4R-OH,5R-OH)]T[Hyp][hTyr(3S-OH,4S-OH)]T[Pro(3S-OH,4S-Me)]; lactam 1-C) | 2.5 | 20 |  |
| CCCCCCCCCCCCS(=O)(=O)c1ccc(C(=O)N[C@H]2C[C@@H](O)[C@@H](O)NC(=O)[C@@H]3[C@@H](O)[C@@H](C)CN3C(=O)[C@H]([C@@H](C)O)NC(=O)[C@H]([C@H](O)[C@@H](O)c3ccc(O)cc3)NC(=O)[C@@H]3C[C@@H](O)CN3C(=O)[C@H]([C@@H](C)O)NC2=O)cc1 [drawing 161] (X5-[Orn(4R-OH,5R-OH)]T[Hyp][hTyr(3S-OH,4S-OH)]T[Pro(3S-OH,4S-Me)]; lactam 1-C) | 20 | 53 |  |
| CCCCCCCCCCCCCCS(=O)(=O)c1ccc(C(=O)N[C@H]2C[C@@H](O)[C@@H](O)NC(=O)[C@@H]3[C@@H](O)[C@@H](C)CN3C(=O)[C@H]([C@@H](C)O)NC(=O)[C@H]([C@H](O)[C@@H](O)c3ccc(O)cc3)NC(=O)[C@@H]3C[C@@H](O)CN3C(=O)[C@H]([C@@H](C)O)NC2=O)cc1 [drawing 162] (X2-[Orn(4R-OH,5R-OH)]T[Hyp][hTyr(3S-OH,4S-OH)]T[Pro(3S-OH,4S-Me)]; lactam 1-C) |  | 11 | 5 |
| CCCCCCCCOc1cccc(C(=O)N[C@H]2C[C@@H](O)[C@@H](O)NC(=O)[C@@H]3[C@@H](O)[C@@H](C)CN3C(=O)[C@H]([C@@H](C)O)NC(=O)[C@H]([C@H](O)[C@@H](O)c3ccc(O)cc3)NC(=O)[C@@H]3C[C@@H](O)CN3C(=O)[C@H]([C@@H](C)O)NC2=O)c1 [drawing 163] (X13-[Orn(4R-OH,5R-OH)]T[Hyp][hTyr(3S-OH,4S-OH)]T[Pro(3S-OH,4S-Me)]; lactam 1-C) | 40 | > 50 |  |
| CCCCCCCCCCOc1cccc(C(=O)N[C@H]2C[C@@H](O)[C@@H](O)NC(=O)[C@@H]3[C@@H](O)[C@@H](C)CN3C(=O)[C@H]([C@@H](C)O)NC(=O)[C@H]([C@H](O)[C@@H](O)c3ccc(O)cc3)NC(=O)[C@@H]3C[C@@H](O)CN3C(=O)[C@H]([C@@H](C)O)NC2=O)c1 [drawing 164] (X9-[Orn(4R-OH,5R-OH)]T[Hyp][hTyr(3S-OH,4S-OH)]T[Pro(3S-OH,4S-Me)]; lactam 1-C) | > 40 | > 50 |  |
| CCCCCCCCCCCCOc1cccc(C(=O)N[C@H]2C[C@@H](O)[C@@H](O)NC(=O)[C@@H]3[C@@H](O)[C@@H](C)CN3C(=O)[C@H]([C@@H](C)O)NC(=O)[C@H]([C@H](O)[C@@H](O)c3ccc(O)cc3)NC(=O)[C@@H]3C[C@@H](O)CN3C(=O)[C@H]([C@@H](C)O)NC2=O)c1 [drawing 165] (X10-[Orn(4R-OH,5R-OH)]T[Hyp][hTyr(3S-OH,4S-OH)]T[Pro(3S-OH,4S-Me)]; lactam 1-C) | > 40 | > 50 |  |
| CCCCCCOc1ccc(C(=O)N[C@H]2C[C@@H](O)[C@@H](O)NC(=O)[C@@H]3[C@@H](O)[C@@H](C)CN3C(=O)[C@H]([C@@H](C)O)NC(=O)[C@H]([C@H](O)[C@@H](O)c3ccc(O)cc3)NC(=O)[C@@H]3C[C@@H](O)CN3C(=O)[C@H]([C@@H](C)O)NC2=O)cc1 [drawing 167] (X14-[Orn(4R-OH,5R-OH)]T[Hyp][hTyr(3S-OH,4S-OH)]T[Pro(3S-OH,4S-Me)]; lactam 1-C) | 20 | 28 |  |
| CCCCCCCCc1ccc(C(=O)N[C@H]2C[C@@H](O)[C@@H](O)NC(=O)[C@@H]3[C@@H](O)[C@@H](C)CN3C(=O)[C@H]([C@@H](C)O)NC(=O)[C@H]([C@H](O)[C@@H](O)c3ccc(O)cc3)NC(=O)[C@@H]3C[C@@H](O)CN3C(=O)[C@H]([C@@H](C)O)NC2=O)cc1 [drawing 169] ({Benzoyl(4-octyl)}-[Orn(4R-OH,5R-OH)]T[Hyp][hTyr(3S-OH,4S-OH)]T[Pro(3S-OH,4S-Me)]; lactam 1-C) | 40 | 30 |  |
